In US7973061B2, “Anaplastic lymphoma kinase modulators and methods of use” (Exelixis, Inc., priority 2004, dated 2011):

Target: T1, ALK (baculovirus expressed human ALK kinase domain F1098-K1410) (Homo sapiens, UniProt Q9UM73)
T1 construct: human ALK kinase domain F1098-K1410; made in house
Assay: biochemical
Conditions: 1 μM ATP, 4 μM poly-AEKY, 12 nM ALK, 2 hours at ambient temperature; read-out: ALK IC50
Summary of the method: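 Inhibitors were tested at 10 concentrations, and IC50 was derived from a sigmoidal fit (Min, Max, Hill slope). Kinase activity was measured as percent ATP left after a 2 h reaction at room temperature, detected by luciferase-luciferin chemiluminescence. The ATP level was set close to KM for the ALK kinase domain F1098-K1410.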

T1 sequence (Q9UM73 1098-1410): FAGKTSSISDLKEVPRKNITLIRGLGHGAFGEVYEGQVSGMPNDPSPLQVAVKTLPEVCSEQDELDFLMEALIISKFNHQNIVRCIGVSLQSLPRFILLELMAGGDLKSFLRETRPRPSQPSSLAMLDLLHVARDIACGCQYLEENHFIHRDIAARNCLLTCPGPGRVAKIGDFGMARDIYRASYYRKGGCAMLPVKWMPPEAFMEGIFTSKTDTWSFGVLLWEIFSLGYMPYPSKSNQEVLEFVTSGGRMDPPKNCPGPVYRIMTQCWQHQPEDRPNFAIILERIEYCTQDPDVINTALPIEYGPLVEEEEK

- IC50: 500 to 2000 nM
Structure (SMILES): CCCCCCC(C)NC(=O)c1csc(CNC(=O)COc2ccc(OC(F)(F)F)cc2)n1 (stereo not shown) [Entry 220, N-(1-methylheptyl)-2-({[({4-[(trifluoromethyl)oxy]phenyl}oxy)acetyl]amino}methyl)-1,3-thiazole-4-carboxamide]
